Molecular target: T1, PKC-ε (Homo sapiens, UniProt Q02156)
T1 sequence (Q02156 1-737): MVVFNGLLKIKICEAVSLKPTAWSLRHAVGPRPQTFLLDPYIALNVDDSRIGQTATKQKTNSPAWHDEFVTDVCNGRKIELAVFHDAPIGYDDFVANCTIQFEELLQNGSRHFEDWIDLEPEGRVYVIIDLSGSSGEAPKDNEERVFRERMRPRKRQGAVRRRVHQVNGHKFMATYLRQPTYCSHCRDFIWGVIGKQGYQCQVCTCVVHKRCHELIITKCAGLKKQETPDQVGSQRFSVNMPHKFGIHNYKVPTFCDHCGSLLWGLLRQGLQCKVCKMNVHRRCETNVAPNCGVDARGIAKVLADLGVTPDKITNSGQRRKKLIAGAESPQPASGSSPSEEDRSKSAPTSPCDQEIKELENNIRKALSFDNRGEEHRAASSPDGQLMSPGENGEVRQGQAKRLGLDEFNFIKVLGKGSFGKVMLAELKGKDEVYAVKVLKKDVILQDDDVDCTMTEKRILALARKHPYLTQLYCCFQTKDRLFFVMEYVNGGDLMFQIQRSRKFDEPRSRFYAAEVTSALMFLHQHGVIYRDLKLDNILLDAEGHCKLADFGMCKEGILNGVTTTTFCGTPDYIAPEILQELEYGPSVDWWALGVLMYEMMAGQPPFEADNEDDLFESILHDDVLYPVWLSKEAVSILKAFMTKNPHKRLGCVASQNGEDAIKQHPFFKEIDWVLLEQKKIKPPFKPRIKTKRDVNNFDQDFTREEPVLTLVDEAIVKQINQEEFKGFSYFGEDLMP
Assay: Activation of purified PKC isozymes, radiometric: PKC-ε
Format: biochemical
Method: To measure PKC, 10 μl of cell homogenate or purified PKC isoform was incubated for 15 min at 37° C. in the presence of 10 μM histones, 4.89 mM CaCl2, 1.2 μg/μl phosphatidyl-L-serine, 0.18 μg/μl 1,2-dioctanoyl-sn-glycerol, 10 mM MgCl2, 20 mM HEPES (pH 7.4), 0.8 mM EDTA, 4 mM EGTA, 4% glycerol, 8 μg/ml aprotinin, 8 μg/ml leupeptin, and 2 mM benzamidine. [γ32P]ATP (0.5 μCi) was added and 32P-phosphoprotein formation was measured by adsorption onto phosphocellulose as described previously. See Nelson et al., J. Neurochemistry, 1995, 65: 2350-2357.
PKC activity of each compound was measured in the absence of diacylglycerol and phosphatidylserine and PKC-δ and PKC-ε were measured in the absence of added EGTA and CaCl2, as described by Kanno et al., J. Lipid Res., 2006, 47: 1146-1156. Low concentrations of Ca^2+ were needed because high Ca^2+ can interact with the PKC phosphatidylserine binding site and prevents activation. […] To determine their PKC isoform specificity, the compounds were pre-incubated with purified isoforms of PKC for five minutes and the PKC activity was measured radiometrically.
The activation and PKC isozyme specificity of DCPLA-ethyl ester was measured following the procedures in Example 1(B) and (C), except that 9 ng of the purified isozyme was used and it was pre-incubated for 5 minutes at room temperature (FIG. 3). PKC-ε activation by DCPLA-tert-butyl ester and DCPLA-retinyl ester was measured in the same manner as DCPLA-ethyl ester (FIG. 3).
The EC50 values, PKC specificity, and activation for a select number of DCPLA esters was determined (see Table 1). EC50 values were determined by measuring the lowest concentration that activates by 50% of maximum activation. […] The specificity and activation of PKC by the various esters of DCPLA were calculated from the measurements of activation of PKC isozymes.

SMILES	PKC-ε activation at peak	concentration range activating PKC-ε by more than 50%	Specificity ε/α (Activation of PKC-ε ÷ activation or inhibition of PKCα at 3 × EC50)	PKC-ε activation (in words)
CCCCCC1CC1CC1CC1CCCCCCCC(=O)OC (stereo not shown) [DCPLA-ME, methyl 8-(2-((2-pentylcyclopropyl)methyl)cyclopropyl)octanoate]	up to 190 % of control	0.01 to 10 µM	12.1	
CC1=C(/C=C/C(C)=C/C=C/C(C)=C/C(=O)O)C(C)(C)CCC1 [RA, All-trans retinoic acid]				not activated
